Data set [1] can be described thus: Triplet lifetime by laser flash photolysis. Type of data set: physicochemical. The following applies: air-saturated ethanol. The method, then:
Absorption spectra were recorded on a Shimadzu UV-2100 spectrophotometer or with a Carry 50 Biospectrophotometer (Varian, Mulgrave, USA). Fluorescence spectra were measured with a Spex Fluorolog 3 spectrophotometer, with correction for the wavelength dependence system (RCA C31034 photomultiplier), or with a PerkinElmer LS 50 spectrofluorimeter. Transient absorption spectra were measured with an Applied Photophysics LKS 60 nanosecond laser flash photolysis kinetic spectrometer, using the third harmonic of a Spectra-Physics Quanta Ray GCR 130-01 Nd/YAG laser for excitation, a Hamamatsu 1P28 photomultiplier and a Hewlett-Packard Infinium oscilloscope (1 GS/s). Flash photolysis measurements were made in the presence of air and in argon saturated solutions. Photoacoustic calorimetry employed the same Nd/YAG laser, a home-made front-face photoacoustic cell with a 2.25 MHz Panametrics transducer (model 5676) and a Tektronix DSA 601 transient recorder. Room-temperature singlet-oxygen phosphorescence was measured at 1270 nm with a Hamamatsu R5509-42 photomultiplier, cooled to 193 K in a liquid nitrogen chamber (Products for Research model PC176TSCE005), following laser excitation of aerated solutions at 355 nm, using an adapted Applied Photophysics spectrometer. Singlet oxygen emission at 1270 nm was also monitored with a liquid nitrogen-cooled germanium detector (North Coast) coupled to a Tectronix Digitizing scope (TDS 520B), following sample excitation with 5 ns laser pulses of the third harmonic (355 nm) generated by a Q-switched Nd:YAG laser (Continuum Surelite II).
The triplet-triplet absorption spectra and the triplet lifetimes of the photosensitisers (τT) were measured with the transient absorption spectra equipment described above, with excitation at 355 nm, where the solutions had absorbances between 0.25 and 0.30.
The triplet-triplet absorption spectra of the Luzitins measured in this work were in good agreement with that in the literature data for chlorins and bacteriochlorins. All triplet decays were clearly mono-exponential. […] Such values are consistent with diffusion limited energy transfer from the triplet state of the sensitizer to molecular oxygen through a charge-transfer interaction.

Data set [2] is described as follows: n-octanol:water partition coefficient (shake-flask). Type of data set: physicochemical. Here is the method: The n-octanol:water partition coefficients (CP) were measured using a minor modification of the shake-flask method described by some of us in the literature. The modification concerned the excitation of the absorption band ca 500 nm and the collection of the fluorescence in the red/IR region.

Data set [3] has as its system PC-3 (human prostate carcinoma). Put plainly: Cell photosensitization, 748 nm diode laser, resazurin. The following applies: for concentration of sensitizer required to kill 90% of cells (LD90): 6 J/cm^2 diode laser irradiation at 28.5 mW. Type of data set: cell-based. Background: The colour change of resazurin is a common sign of viable cells or microbes.
Data set [4] can be described thus: Photobleaching under 748 nm diode laser irradiation. The following applies: for t1/2 (photobleaching half-life): 100 mW laser irradiation at 748 nm. It is filed as physicochemical. The text has this:
The irradiation of bacteriochlorins in the photobleaching experiments employed the 748 nm Lynx diode laser. For animal studies we employed a costumer-made Hamamatsu diode laser, type LA0873. S/N M070301, which delivered 140 mW at 748 nm. This diode laser was controlled by a ThorLabs 500 mA ACC/APC Laser Diode Controller and in-house electronics. The laser energies of this and the other higher-energy lasers employed in this work were regularly checked with an Ophir model AN/2E laser power meter.
Photobleaching experiments were conducted in PBS. PBS:methanol (50:50) and methanol solutions. The solutions were irradiated in a cuvette with an optical path of 1 cm and the Lynx diode laser. The initial absorption of the solutions was ca. 0.8. The mechanism of photobleaching was assessed with the irradiation of the sensitizer using the Hamamatsu diode laser at 80 mW. The sensitizer was irradiated in PBS and in the presence of ascorbic acid or azide.
The chemical stability of the compounds was studied exposing them to light, air, and pH changes. The most significant degradation occurs for aerated solutions irradiated by light of the appropriate wavelength. In such circumstances the photobleaching of the compounds follows a first-order rate and is proportional to the energy of the incident laser light. In general, it was also observed that the photobleaching rate increases with the amount of water present in the solution. Bennett reported the photoconversion of Foscan® (m-THPC) and of the analogous bacteriochlorin (m-THPB) in PBS:methanol (50:50). Scherz reported the photoconversion of Tookad® in acetone and Triton-X:PBS [3]. For the purpose of comparing the photostability of Luzitins with that of Foscan® and Tookad®, we present in Table 2 the half-lives (t1/2) of representative drugs described herein, together with those of Foscan and Tookad® normalized for a laser power of 100 mW.
Luzitin-FMet was dissolved in PBS:methanol (2:3), transferred to a 1 cm quartz cell and its absorption spectrum was registered, FIG. 6. The quartz cell was then placed in the beam of the 748 nm Lynx diode laser, previously unfocused to have a beam diameter coincident with the window of the quartz cell. The laser power measured under these conditions was 28.8 mW. Every 5 minutes the irradiation was interrupted and a new absorption spectrum was registered. This procedure was followed for 65 minutes. The photobleaching follows the kinetics of a first-order reaction in the time window of the experiment. […] Whereas the bacteriochlorin peak at 743 nm is reduced from an absorbance of 1.128 to 0.337, the absorption of the chlorin only increases from 0.114 to 0.151. Taking into consideration the molar absorption coefficients of the compounds at these wavelengths, it is clear that whereas 70% of the bacteriochlorin is destroyed during the irradiation, only a few percent of chlorin are formed.
The half-lives of other bacteriochlorins normalized 100 mW laser irradiation at 748 nm are presented in […], together with the literature data for the photodegradation of Foscan® and Tookad® normalized for the same light intensity. It was also observed that the half-live to Luzitin-Cl is increased by a factor of 30 when the PBS solution of the photosensitizer is saturated with Argon, which reduces the oxygen concentration in the solution.

The nature of data set [5]: Absorption spectra (λmax, molar absorption coefficient). It is filed as physicochemical. The following applies: for λmax / εmax: ethanol solutions.
The mark [6] stands for this setting: corrected for the chlorin content.

Turning to `O=S(=O)(O)c1ccc(Cl)c(-c2c3nc(c(-c4c(Cl)ccc(S(=O)(=O)O)c4Cl)c4ccc([nH]4)c(-c4c(Cl)ccc(S(=O)(=O)O)c4Cl)c4nc(c(-c5c(Cl)ccc(S(=O)(=O)O)c5Cl)c5ccc2[nH]5)CC4)CC3)c1Cl` [Luzitin-Cl2, 5,10,15,20-tetrakis(2,6-dichloro-3-sulfonylphenyl)bacteriochlorin], the “τT (air) triplet lifetime” value in data set [1] is recorded as 226 nsec. In addition, the “log KOW (n-octanol:water partition coefficient)” value (from here on “log KOW”) in data set [2] is listed as −1.75. The cell kill in data set [3] (20 μM, laser light dose 6 J/cm^2, incubation 24 hours) is recorded as 100%. In addition, the “concentration of sensitizer required to kill 90% of cells (LD90)” value (shortened to “concentration … to kill 90% of cells (LD90)”) in data set [3] was determined as 20 µM. Moreover, the “t1/2 (photobleaching half-life)” value in data set [4] (PBS) was 358 s. This compound gave a λmax in data set [5] of 745.0 nm. Also, in data set [5] (setting [6]), the εmax was 27,000^d) M^−1 cm^−1.

On to `CCNS(=O)(=O)c1ccc(Cl)c(-c2c3nc(c(-c4c(Cl)ccc(S(=O)(=O)NCC)c4Cl)c4ccc([nH]4)c(-c4c(Cl)ccc(S(=O)(=O)NCC)c4Cl)c4nc(c(-c5c(Cl)ccc(S(=O)(=O)NCC)c5Cl)c5ccc2[nH]5)CC4)CC3)c1Cl` [Luzitin-Cl2Et, 5,10,15,20-tetrakis(2,6-dichloro-3-N-ethylsulfamoylphenyl)bacteriochlorin], for which the “τT (air) triplet lifetime” value in data set [1] is on record as 265 nsec. Moreover, the “log KOW” value in data set [2] amounted to 1.8. Also, in data set [3], the “concentration … to kill 90% of cells (LD90)” value was 5 µM. Further, in data set [4] (PBS:methanol), the “t1/2 (photobleaching half-life)” value is 4,013 sec. Further, in data set [5], the “enhancement of ε at 750 nm band, more polar atropisomer fraction (βα3+α4)” value came out at 50%; the εmax is reported as 96,000 M^−1 cm^−1; the λmax was found to be 745.5 nm. For the same compound, in data set [5] (at 748 nm (750 nm band), estimated), the “εmax of the more polar atropisomer fraction (βα3+α4)” value was 150,000 M^−1 cm^−1.

Turning to `O=S(=O)(O)c1ccc(Cl)c(-c2c3nc(c(-c4cc(S(=O)(=O)O)ccc4Cl)c4ccc([nH]4)c(-c4cc(S(=O)(=O)O)ccc4Cl)c4nc(c(-c5cc(S(=O)(=O)O)ccc5Cl)c5ccc2[nH]5)CC4)CC3)c1` [Luzitin-Cl, 5,10,15,20-tetrakis(2-chloro-5-sulfonylphenyl)bacteriochlorin], in data set [1], the “τT (air) triplet lifetime” value is given as 240 nsec. In addition, in data set [2], the “log KOW” value was −1.70. In data set [4] (PBS), the “t1/2 (photobleaching half-life)” value was 174 s. Besides, the λmax in data set [5] worked out at 746.5 nm. The εmax in data set [5] (setting [6]) was 23,000^d) M^−1 cm^−1.

In the case of `CNS(=O)(=O)c1ccc(F)c(-c2c3nc(c(-c4cc(S(=O)(=O)NC)ccc4F)c4ccc([nH]4)c(-c4cc(S(=O)(=O)NC)ccc4F)c4nc(c(-c5cc(S(=O)(=O)NC)ccc5F)c5ccc2[nH]5)CC4)CC3)c1` [Luzitin-FMet, 5,10,15,20-tetrakis(2-fluoro-5-N-methylsulfamoylphenyl)bacteriochlorin], the “log KOW” value in data set [2] amounted to 2.3. Besides, the “concentration … to kill 90% of cells (LD90)” value in data set [3] turned out to be 0.5 µM. Moreover, the “bacteriochlorin destroyed during irradiation” value in data set [4] (PBS:methanol (2:3), 748 nm, 28.8 mW, 65 minutes) is 70%. Further, the “t1/2 (photobleaching half-life)” value was 647 s in data set [4] (PBS:methanol) and 3,553 sec in data set [4] (methanol). The compound further gave a λmax in data set [5] of 742.5 nm. Besides, the εmax in data set [5] (setting [6]) is reported as 62,000^d) M^−1 cm^−1.

The record behind these values is patent publication US9670217B2, “Process for preparing chlorins and their pharmaceutical uses” (UNIVERSIDADE DE COIMBRA, priority 2008, dated 2017).
